Measurements: paper PMC5507300, “Antibacterial small molecules targeting the conserved TOPRIM domain of DNA gyrase” (PLoS ONE, 2017)
Values after ≈ are worked out from the molar mass of the structure shown.

What was measured:
Format in all cases: cell-based
E. coli HS151 (ΔtolC) = test: microbe, parasite or virus in culture; settings: Escherichia coli
Text: (§1) E. coli HS151 (ΔtolC) has been described previously. […] E. coli BW25113 and the Keio gene deletion collection based on BW25113 [25] were obtained from Thermo Fisher Scientific (Waltham, MA) and described in [26]. The plasmid-borne FQ resistance determinant, qnrVC3 [27], was kindly provided by D. Hooper (Massachusetts General Hospital). […] MB2884 (E. coli) and CL15245 (K. pneumoniae) are clinical isolates from the Merck & Co., Inc., Kenilworth, NJ, USA, strain collection. S. aureus COL is a methicillin-resistant clinical isolate.
(§2) Compound doubling dilutions were prepared in 100% DMSO (Sigma Aldrich) and 2 μL of each dilution was transferred to a 96-well plate with lid (Thermo Scientific). Inoculum for all MIC testing was prepared using the BBL Prompt Inoculation System (Becton Dickinson, Franklin Lakes, NJ USA) as described by the manufacturer to produce a suspension of cells at approximately 1.5 x 10^8 colony forming units (CFU)/mL [34–36] and a further dilution (1:1000) was made into cation adjusted Mueller-Hinton broth (CAMH broth, Becton-Dickinson). One hundred μL of this inoculum were then transferred to each well of the 96-well plate containing diluted compound (above). Plates were covered and incubated overnight (18 hrs.) at 37°C.

[1] = system: E. coli GYR103 GyrB L446Q; test: microbe, parasite or virus in culture; settings: Escherichia coli
Text: (§3) E. coli HS151 (ΔtolC) has been described previously. Gyrase inhibitor-resistant isolates (GYR101-108) were derived by selection for spontaneous resistance to MRL-770 or MRL-423 (Fig 1) in E. coli HS151 as described below. E. coli BW25113 and the Keio gene deletion collection based on BW25113 [25] were obtained from Thermo Fisher Scientific (Waltham, MA) and described in [26]. The plasmid-borne FQ resistance determinant, qnrVC3 [27], was kindly provided by D. Hooper (Massachusetts General Hospital). MB9796 (A. baumannii) is a derivative of MB9797 (ATCC19606) lacking lipopolysaccharide. The efflux-defective P. aeruginosa strain MB5890 (CB398) is a derivative of MB5919 (PAO1). MB2884 (E. coli) and CL15245 (K. pneumoniae) are clinical isolates from the Merck & Co., Inc., Kenilworth, NJ, USA, strain collection. S. aureus COL is a methicillin-resistant clinical isolate.
as §2
After the agar solidified, 5 μL of a saturated bacterial culture, grown in CAMH broth, were dispensed on the agar surface and allowed to dry at room temperature. […] To select for resistance, a 100 mm petri dish was filled with 25 mL CAMH agar containing 8 μg/mL MRL-770 or 0.5 μg/mL MRL-423 (Fig 1). The cells in 1 mL of an overnight culture of E. coli HS151 (~10^9 CFU/mL) were concentrated by centrifugation and spread onto the surface of an MRL-770 or MRL-423 containing plate. After the surface dried at room temperature the plate was incubated at 37°C overnight. Any colonies that arose were counted and an approximate frequency of resistance was calculated after confirming resistance by restreaking on media containg compound as well as measuring MICs (see Results). Genomic DNA from the parent strain (E. coli HS151) and purified (restreaked) resistant isolates was obtained with a GeneJET genomic DNA purification kit according to the manufacturer’s instructions (Fisher Scientific). Assembled whole genome mutant sequences were then compared to the parent strain and polymorphisms were identified as described.

[2] = system: E. coli GYR101 GyrB F513L; test: microbe, parasite or virus in culture; settings: Escherichia coli
Text: as §1, §2
(§4) After the agar solidified, 5 μL of a saturated bacterial culture, grown in CAMH broth, were dispensed on the agar surface and allowed to dry at room temperature. […] After the surface dried at room temperature the plate was incubated at 37°C overnight. […] Genomic DNA from the parent strain (E. coli HS151) and purified (restreaked) resistant isolates was obtained with a GeneJET genomic DNA purification kit according to the manufacturer’s instructions (Fisher Scientific). Assembled whole genome mutant sequences were then compared to the parent strain and polymorphisms were identified as described.

[3] = system: E. coli GYR102 GyrB E466EV; test: microbe, parasite or virus in culture; settings: Escherichia coli
Text: as §1, §2, §4

[4] = system: E. coli GYR104 GyrB L470I; test: microbe, parasite or virus in culture; settings: Escherichia coli
Text: as §1, §2, §4

[5] = system: E. coli GYR105 GyrB T469K; test: microbe, parasite or virus in culture; settings: Escherichia coli
Text: as §1, §2, §4

[6] = system: E. coli GYR106 GyrB F513L/A468V; test: microbe, parasite or virus in culture; settings: Escherichia coli
Text: as §1, §2, §4

[7] = system: E. coli GYR107 GyrB F513L/L422V; test: microbe, parasite or virus in culture; settings: Escherichia coli
Text: as §1, §2, §4

[8] = system: E. coli GYR108 GyrB L470I/V467L; test: microbe, parasite or virus in culture; settings: Escherichia coli
Text: as §1, §2, §4

E. coli CIP101 GyrA D87N = test: microbe, parasite or virus in culture; settings: Escherichia coli
Procedure: as §2

[9] = system: A. baumannii ΔlpxC MB9796; test: Broth microdilution MIC, A. baumannii MB9796; settings: Acinetobacter baumannii
Text: as §3, §2

[10] = system: A. baumanii MB9797 (ATCC19606); test: Broth microdilution MIC, A. baumannii MB9797; settings: Acinetobacter baumannii
Text: as §3, §2

S. aureus (MRSA) COL = test: Broth microdilution MIC, S. aureus COL; settings: Staphylococcus aureus, MRSA
Text: as §3, §2

E. coli HS151 (qnrVC) = test: Broth microdilution MIC, E. coli HS151 (qnrVC); settings: Escherichia coli
Text: as §3, §2

E. coli BW25113 ΔtolC = test: Broth microdilution MIC, E. coli BW25113 ΔtolC; settings: Escherichia coli
Text: as §3, §2
The yacG deletion allele from the Keio collection was amplified by PCR (primers: […] and […]) and moved to BW25113 ΔtolC as described below. The E. coli strain BW25113 ΔtolC containing pKD46 [25] was used to inoculate SOB (Invitrogen)/0.2% w/v arabinose (Sigma Aldrich)/ampicillin (100 μg/mL) and grown overnight at 30°C. The overnight culture was then diluted 1/40 into 20 mL fresh SOB/0.2% w/v arabinose/ampicillin (100 μg/mL) and grown at 30°C while shaking for ~3 hrs until OD600 = 0.5. […]

[11] = system: E. coli BW25113 ΔtolC/ΔyacG; test: Broth microdilution MIC, E. coli BW25113 ΔtolC/ΔyacG; settings: Escherichia coli, BW25113
Procedure: as §2
The yacG deletion allele from the Keio collection was amplified by PCR (primers: […] and […]) and moved to BW25113 ΔtolC as described below. The E. coli strain BW25113 ΔtolC containing pKD46 [25] was used to inoculate SOB (Invitrogen)/0.2% w/v arabinose (Sigma Aldrich)/ampicillin (100 μg/mL) and grown overnight at 30°C. The overnight culture was then diluted 1/40 into 20 mL fresh SOB/0.2% w/v arabinose/ampicillin (100 μg/mL) and grown at 30°C while shaking for ~3 hrs until OD600 = 0.5. Cells were pelleted by centrifugation at 4000 rpm for 10 min, washed with 40 mL ice cold sterile, distilled H2O, then 3 x 1 mL ice cold 10% glycerol followed by centrifugation at 5000 g for 3 minutes. The pellet was resuspended in 100 μL of 10% glycerol (1/200 of starting culture). For transformation, 5 μL of gel purified PCR product was added to 50 μL cells, mixed, and immediately electroporated in a 0.2 cm gap cuvette at 2.5kV, 25 μF, 200 Ω (BioRad, Hercules, CA USA). Electroporated cells were recovered in 1 mL SOC (Invitrogen)/0.2% arabinose at 37°C for 2 hours with shaking. Cells in amounts of 50 and 950 μL were then plated on LB agar supplemented with kanamycin (25 μg/mL) and incubated overnight at 37°C. Correct gene replacements were verified by PCR.

[12] = system: DNA synthesis in E. coli JL553; test: Macromolecule synthesis labeling; settings: E. coli JL553, 25 min exposure, labeled precursor incorporation
Procedure: Macromolecule synthesis profiling was conducted as described by Montgomery, et al. with minor modifications. E. coli strain JL553 (tolC, lysE) was used to measure inhibition of DNA, RNA, protein, peptidoglycan and phospholipid biosynthesis while E. coli MB5500 (lpxC [envA1], galE; Merck & Co., Inc., Kenilworth, NJ, USA, strain collection) was used to measure inhibition of lipopolysaccharide biosynthesis. Radioisotope labeled precursors were used at the following final concentrations [2-^14C]-thymidine (2.5 μCi/mL), [^14C(U)]-uridine (0.5 μCi/mL), L-[4, 5-^3H]-leucine (5 μCi/mL), [2-^3H]-glycerol (2 μCi/mL), [^3H]-diaminopimelic acid (3 μCi/mL), D-[1-^14C]-galactose (0.5 μCi/mL). Compound concentrations (3-fold serial dilutions) were chosen to place the minimum inhibitory concentration (see below) near the center of the dose range. Labeled cultures were incubated with compound for 25 min; stopped with trichloroacetic acid, filtered and incorporation was measured as described. Percent inhibition of incorporation was calculated relative to an untreated control culture for each labeled precursor and plotted with GraphPad Prism.

E. coli HS151 = test: In vitro time-dependent bactericidal study; settings: E. coli HS151; at the 4 hour time point
Procedure: A culture of E. coli HS151 in CAMH broth was grown overnight (18 hrs.) at 37°C, diluted 1:10,000 in 200 mL of fresh CAMH broth and further incubated for 1 hour at 37°C with shaking. A time-zero sample was then removed and 20 mL portions of the remaining culture were transferred into 125 mL vented flasks to which were added MRL-1082 or control antibiotics, at the indicated concentrations. These flasks were then incubated at 37°C with shaking (70 rpm). Samples were withdrawn at the indicated times, plated on blood agar (trypticase soy agar with 5% sheep blood, Becton-Dickinson) and, following overnight growth at 37°C, colonies were counted to determine CFU/mL.

[13] = system: E. coli MB2884 (clinical isolate); test: Broth microdilution MIC, E. coli MB2884; settings: Escherichia coli
Text: as §1, §2

[14] = system: P. aeruginosa MB5919 (PAO1); test: Broth microdilution MIC, P. aeruginosa MB5919; settings: Pseudomonas aeruginosa
Text: as §1, §2

[15] = system: K. pneumoniae CL15245 (clinical isolate); test: Broth microdilution MIC, K. pneumoniae CL15245; settings: Klebsiella pneumoniae
Text: as §1, §2

Row | SMILES | MIC [1] [µg/mL] | MIC [2] [µg/mL] | MIC [3] [µg/mL] | MIC [4] [µg/mL] | MIC [6] [µg/mL] | MIC [8] [µg/mL] | MIC (E. coli CIP101 GyrA D87N) [µg/mL] | MIC [9] [µg/mL] | MIC [10] [µg/mL] | MIC (S. aureus (MRSA) COL) [µg/mL] | also measured
1 | COc1cc(Cc2cnc(N)nc2N)cc(OC)c1OC [Trimeth-oprim] | 0.0625 (≈ 0.215 µM) | 0.0625 (≈ 0.215 µM) | 0.0625 (≈ 0.215 µM) | 0.0625 (≈ 0.215 µM) | 0.0625 (≈ 0.215 µM) | 0.125 (≈ 0.431 µM) | 0.0625 (≈ 0.215 µM) |  |  |  | MIC (E. coli HS151 (ΔtolC); Table 2, HS151, GyrB mutation none): 0.0625 µg/mL (≈ 0.215 µM); MIC [5]: 0.0625 µg/mL (≈ 0.215 µM); MIC [7]: 0.0625 µg/mL (≈ 0.215 µM)
2 | O=C(O)c1cn(C2CC2)c2cc(N3CCNCC3)c(F)cc2c1=O [ciprofloxacin] | 0.0039 (≈ 0.0118 µM) |  |  |  |  | 0.0039 (≈ 0.0118 µM) | 0.0312 (≈ 0.0943 µM) | 0.0625 (≈ 0.189 µM) | > 0.125 | > 0.125 | MIC (E. coli HS151 (ΔtolC); Table 3, HS151): 0.004 µg/mL (≈ 0.0121 µM); MIC (E. coli HS151 (qnrVC)): 0.03 µg/mL (≈ 0.0905 µM); MIC (E. coli BW25113 ΔtolC): 0.004 µg/mL (≈ 0.0121 µM); MIC [11]: 0.004 µg/mL (≈ 0.0121 µM); inhibition of macromolecule synthesis [12]: Dose-dependent, selective inhibition of DNA synthesis; culture viability, below lower limit of quantitation (E. coli HS151): < 20 CFU/mL
3 | C[C@H]1COc2c(N3CCN(C)CC3)c(F)cc3c(=O)c(C(=O)O)cn1c23 [levofloxacin] | 0.0078 (≈ 0.0216 µM) | 0.0078 (≈ 0.0216 µM) | 0.0312 (≈ 0.0865 µM) | 0.0078 (≈ 0.0216 µM) | 0.0078 (≈ 0.0216 µM) |  | 0.0625 (≈ 0.173 µM) | 0.0156 (≈ 0.0432 µM) | 0.125 (≈ 0.346 µM) | > 0.125 | MIC (E. coli HS151 (ΔtolC); 18 h, Table 1, HS151 E. coli ΔtolC): 0.00195 µg/mL (≈ 0.0054 µM); MIC [13]: 0.0156 µg/mL (≈ 0.0432 µM); MIC [14]: > 0.125 µg/mL; MIC [15]: 0.0156 µg/mL (≈ 0.0432 µM)
